In PubChem BioAssay AID1645848:
In brackets after ≈: the same amount, converted by molar mass.

Details: buffer; pH 7.4; 6.0 h; 150.0 µM
With Cc1ccc(C(=O)N2CCc3cc(-c4nc(NC(=O)Cc5ccc6c(c5)OCO6)sc4C)ccc32)cc1 the solubility kinetic was under 1 µg/mL. For O=C(O)c1ccccc1C(=O)Nc1ccc(-c2ccccc2)cc1, the solubility kinetic was over 47 µg/mL. For COc1ccc(C)cc1NS(=O)(=O)c1ccc(-c2cnc(C3CC3)o2)cc1, the solubility kinetic was under 1 µg/mL. For Cc1ccc(S(=O)(=O)Nc2cnccc2C(=O)Nc2ccc(-c3nn[nH]n3)cc2)cc1, the solubility kinetic was over 64 µg/mL. For Fc1ccc(Cl)cc1-c1nc(Nc2ccncc2)c2nccnc2n1, the solubility kinetic was 1.6 µg/mL (≈ 4.54 µM). Work on COc1cc(NC(=O)Cn2c(=O)oc3cc(S(=O)(=O)N4CCCCCC4)ccc32)cc(OC)c1 yielded a solubility kinetic of under 1 µg/mL. Work on CC(C)N(CCC(=O)c1ccc2ccccc2c1)Cc1ccccc1 yielded a solubility kinetic of 13.4 µg/mL (≈ 40.3 µM). In the case of Oc1ccc(CNc2ccccc2Br)c2cccnc12, the solubility kinetic was 8.3 µg/mL (≈ 25.2 µM). CCOc1ccc(CCNC(=O)c2ccccc2)cc1OCC gave a solubility kinetic of 29.2 µg/mL (≈ 93.3 µM). C[C@H]1CN(C(=O)c2nn(C)c3ccccc23)C[C@@H]1c1nc(-c2cccnc2)no1 gave a solubility kinetic of 19.7 µg/mL (≈ 50.6 µM). In the case of CCOc1ccc(C(=O)Nc2ccc(S(=O)(=O)N3CCCCC3c3cccnc3)cc2)cc1 (stereo unspecified), the solubility kinetic was under 1 µg/mL. Compound CCc1ccc(NC(=O)CSC2=Nc3ccccc3C3=NC(CC(=O)NCc4ccc5c(c4)OCO5)C(=O)N23)cc1 (stereo unspecified) has a solubility kinetic of 2.36 µg/mL (≈ 4.15 µM). Work on CCCCOc1ccccc1C(=O)Nc1ccccc1C(=O)Nc1cccc(S(=O)(=O)C(F)(F)F)c1 yielded a solubility kinetic of under 1 µg/mL. CCc1cccc(C)c1Nc1c(-c2ccc(N(C)C)cc2)nc2ncccn12 gave a solubility kinetic of 1.88 µg/mL (≈ 5.05 µM). With O=S(=O)(Nc1ccc(-c2ccccc2)cc1)c1ccc(NCc2ccc(Br)cc2O)cc1 the solubility kinetic was under 1 µg/mL. In the case of COc1cc([C@@H]2c3cc4c(cc3[C@H](O)[C@H]3COC(=O)[C@H]23)OCO4)cc(OC)c1OC, the solubility kinetic was over 61 µg/mL. In the case of COc1cccc(CNc2ccc(S(=O)(=O)Nc3ccccn3)cc2)c1O, the solubility kinetic was 8.36 µg/mL (≈ 21.7 µM). Work on COc1ccccc1CN1CCNc2cc(Nc3ccccc3)ncc2C1 yielded a solubility kinetic of over 80 µg/mL. With Clc1ccc2ncc(-c3cccc(NC4CNC4)n3)n2c1 the solubility kinetic was over 44 µg/mL. Cc1ccc(OCCn2c(CCNC(=O)C3CCCCC3)nc3ccccc32)cc1 showed a solubility kinetic of under 1 µg/mL. For CCOc1ccc(CCNC(=O)c2ccnn2Cc2cccc(C)c2)cc1OCC, the solubility kinetic was 2.88 µg/mL (≈ 7.06 µM). Compound C[C@@H](O)CNC(C)(C)CC(=O)N[C@@H]1CCc2ccccc2N(Cc2ccc(-c3ccccc3-c3nn[nH]n3)cc2)C1=O has a solubility kinetic of over 84 µg/mL. Work on CC(=O)N1CCc2c(sc3c2c(=O)n(-c2ccccc2)c(=O)n3CC(=O)c2ccccc2)C1 yielded a solubility kinetic of 3.53 µg/mL (≈ 7.69 µM). COc1cccc(CNc2ccc(S(=O)(=O)Nc3ncc(-c4ccccc4)s3)cc2)c1O showed a solubility kinetic of 6.07 µg/mL (≈ 13 µM). Work on CCOc1ccc(CCNC(=O)c2cc3sccc3n2Cc2ccccc2)c(F)c1OCC yielded a solubility kinetic of under 1 µg/mL. For Cc1nc2ccc(C(=O)N3CCC4(CC3)CC(=O)c3c(cnn3C(C)C)C4)cc2[nH]1, the solubility kinetic was over 60 µg/mL. For Cc1ccc(-n2nc3c(=O)n(CCCC(=O)NCc4ccc(F)cc4)nc(C)c3c2C)cc1, the solubility kinetic was 5.86 µg/mL (≈ 13.1 µM). In the case of Cc1noc(C)c1[S+](=O)([O-])N1CCC2(CC1)CC(c1cccc(C(F)(F)F)c1)=NO2, the solubility kinetic was under 1 µg/mL. Cc1cc(C)c(CNC(=O)c2nc(-c3ccc(F)cc3)cc3c2ccn3C(C)C)c(=O)[nH]1 showed a solubility kinetic of under 1 µg/mL. Work on CS(=O)(=O)CCNCc1ccc(-c2ccc3ncnc(Nc4ccc(OCc5cccc(F)c5)c(Cl)c4)c3c2)o1 yielded a solubility kinetic of under 1 µg/mL. For CN(C(=O)CNC(=O)c1ccccc1OCC(=O)Nc1ccc(I)cc1)c1ccccc1, the solubility kinetic was 1.28 µg/mL (≈ 2.35 µM). CN(C)C(=O)c1nc(-c2ccc(Cl)nc2)c2ccccn12 showed a solubility kinetic of 27.6 µg/mL (≈ 91.8 µM). CC(=O)Nc1ccc(S(=O)(=O)Nc2nccs2)cc1 gave a solubility kinetic of over 44 µg/mL. Compound COc1ccc(-c2ccc3ncc(Nc4ccc(C(N)=O)cc4)n3n2)cc1OC has a solubility kinetic of 27.4 µg/mL (≈ 70.4 µM). In the case of OCc1ccc(-c2nn(Cc3ccccc3)c3ccccc23)o1, the solubility kinetic was 2.72 µg/mL (≈ 8.94 µM). With Cc1ccc(CNCc2cn[nH]c2-c2ccc(C)cc2)cc1 the solubility kinetic was 30 µg/mL (≈ 103 µM). With COc1ccc(-n2nc(C3CCN(C(=O)c4ccccc4)CC3)[nH]c2=O)cc1 the solubility kinetic was over 56 µg/mL. Cc1cc(C)nc(NC(=S)N2CCN(c3cc(C(F)(F)F)nc4ccc(C(F)(F)F)cc34)CC2)c1 showed a solubility kinetic of 12 µg/mL (≈ 23.4 µM). Compound O=C(c1ccc(-c2ncc3cnc(-c4ccccc4)cn23)cc1)N1CCS(=O)(=O)CC1 has a solubility kinetic of 65.1 µg/mL (≈ 150 µM). For NC(=O)C1CCN(c2nc(-c3ccc4c(c3)CCO4)cs2)CC1, the solubility kinetic was over 49 µg/mL. In the case of COc1ccc(-c2csc(NC(=O)c3ccccc3NS(=O)(=O)c3ccc(C)cc3)n2)cc1, the solubility kinetic was under 1 µg/mL. In the case of Cc1cccc(-c2cc(NC(=O)c3ccccc3C)n(-c3ccccc3)n2)c1, the solubility kinetic was under 1 µg/mL. Work on CCc1nc2c(sc3nc4c(cc32)COC(C)(C)C4)c(=O)n1Cc1ccco1 yielded a solubility kinetic of 6.22 µg/mL (≈ 15.7 µM). CCOc1ccc(NC(=O)c2nc(S(=O)(=O)Cc3ccccc3F)ncc2Cl)cc1 showed a solubility kinetic of under 1 µg/mL. In the case of COc1ccc(-c2nc3ccccc3s2)cc1NC(=O)c1ccc(F)cc1, the solubility kinetic was under 1 µg/mL. With CN(C)CCN1C(=O)c2cccc3cc(N)cc(c23)C1=O the solubility kinetic was over 42 µg/mL. COc1cc(-c2ccnc3c2c(C)nn3-c2cccc(C(F)(F)F)c2)ccc1O showed a solubility kinetic of 16.5 µg/mL (≈ 41.2 µM). Work on COc1cccc(CNc2ccc(S(=O)(=O)Nc3ccc4ccccc4c3)cc2)c1O yielded a solubility kinetic of under 1 µg/mL. In the case of COc1ccc(NS(=O)(=O)c2ccc(C)c(C(=O)Nc3ccc4oc(C)nc4c3)c2)cc1, the solubility kinetic was 8.77 µg/mL (≈ 19.4 µM). Cc1cccc(-c2csc(N3CCC(C(N)=O)CC3)n2)c1 showed a solubility kinetic of over 45 µg/mL. With COc1cc(-c2nc(Nc3ccc(F)c(F)c3)c3ccccc3n2)c(F)cn1 the solubility kinetic was under 1 µg/mL. Compound CNc1nccc(-c2cccc3ccccc23)n1 has a solubility kinetic of 4.49 µg/mL (≈ 19.1 µM). COc1ccc(Nc2nnc(-c3ccc(C)c(S(=O)(=O)NCc4nc5ccccc5[nH]4)c3)c3ccccc23)cc1 showed a solubility kinetic of under 1 µg/mL. Compound Cc1ccc(-c2cc3c(nn2)-c2ccccc2C3=O)cc1 has a solubility kinetic of under 1 µg/mL. Cc1ccc(NC(=O)NCC2CCN(Cc3cccc(Cl)c3)CC2)cc1Cl showed a solubility kinetic of under 1 µg/mL. Work on Cc1ccc(S(=O)(=O)Nc2cnccc2C(=O)Nc2ccc(-n3cncn3)cc2)cc1 yielded a solubility kinetic of over 64 µg/mL. COc1ccc(OC)c(Nc2c3c(nc4ccccc24)CCC3)c1 showed a solubility kinetic of over 47 µg/mL. Cn1ccc2c(C(=O)NCCC(N)=O)nc(-c3cccc(CO)c3)cc21 gave a solubility kinetic of over 78 µg/mL. Work on O=C(NCC1Cn2cccc2CN1Cc1cccnc1)Nc1ccccc1 (stereo unspecified) yielded a solubility kinetic of over 53 µg/mL. For NC(=O)C1CCN(c2nccc(-c3ccc(Br)cc3)n2)CC1, the solubility kinetic was 5.39 µg/mL (≈ 14.9 µM). Compound O=C1Nc2ccccc2/C1=C\c1cc(F)c(O)c(F)c1 has a solubility kinetic of over 40 µg/mL. Compound Cc1ccc(S(=O)(=O)Nc2ccccc2C(=O)Nc2ccc(-c3ccccc3)nn2)cc1 has a solubility kinetic of under 1 µg/mL. Cc1ccc(-c2ccnc(N3CCC(C(N)=O)CC3)n2)cc1 gave a solubility kinetic of 2.67 µg/mL (≈ 9.01 µM). Work on Cc1cccc(N2CCN(C(=O)c3ccc4c(c3)C(O)CCCCCN4C)CC2)c1 (stereo unspecified) yielded a solubility kinetic of 14.8 µg/mL (≈ 36.3 µM). Work on CC(=O)NCc1ccc(-c2csc(Nc3cc(C)cc(C)c3)n2)o1 yielded a solubility kinetic of 1.14 µg/mL (≈ 3.33 µM). In the case of O=C(Nc1nc(-c2ccccc2)cs1)c1ccncc1NS(=O)(=O)c1ccccc1F, the solubility kinetic was 38.8 µg/mL (≈ 85.4 µM). O=[S+]([O-])(Nc1ccc(N2CCNCC2)cc1)c1ccc(NCc2cccc(Cl)c2O)cc1 showed a solubility kinetic of 52.4 µg/mL (≈ 111 µM). Compound Cc1ccc(CNc2ccccc2C(=O)Nc2nc(-c3ccccc3)cs2)cc1 has a solubility kinetic of under 1 µg/mL. For NC(=O)C1CCN(c2nc(-c3ccc(Br)cc3)cs2)CC1, the solubility kinetic was under 1 µg/mL. In the case of CCOc1ccc(CCNC(=O)c2cc3ccncc3n2Cc2cccc(C)n2)cc1OCC, the solubility kinetic was over 68 µg/mL. For Nc1nccc2c1ncn2[C@@H]1C=C(CO)[C@@H](O)[C@H]1O, the solubility kinetic was over 39 µg/mL. Compound CN1C(=O)c2ccccc2[S@](=O)c2ccc(C(=O)NCCN3CCCC3)cc21 has a solubility kinetic of over 59 µg/mL. With CCOc1ccc(C(C)CNC(=O)c2cc3sccc3n2Cc2ccccc2)cc1OCC (stereo unspecified) the solubility kinetic was under 1 µg/mL. With O=C(Nc1ccccc1C(=O)Nc1cccc(C(F)(F)F)c1)c1ccccc1 the solubility kinetic was under 1 µg/mL. In the case of COc1ccc(C(=O)Nc2nc(-c3ccccc3)cs2)c(OC)c1, the solubility kinetic was under 1 µg/mL. In the case of Cc1ccc(-c2cc(C(=O)Nc3ccc(S(C)(=O)=O)cc3)c3ccccc3n2)cc1C, the solubility kinetic was under 1 µg/mL. In the case of Cc1cnc(-c2ccccc2C2COC2)nc1NCC1CCN(c2cccnc2)CC1, the solubility kinetic was over 61 µg/mL. Oc1ccccc1CN1CCNc2cc(Nc3ccccc3)ncc2C1 gave a solubility kinetic of 24.3 µg/mL (≈ 70.1 µM). Compound CC1CCCCN1c1ncnc(N)c1[N+](=O)[O-] (stereo unspecified) has a solubility kinetic of over 35 µg/mL. With COc1ccccc1CNS(=O)(=O)c1ccc(-c2cnc(C3CC3)o2)cc1 the solubility kinetic was 2.61 µg/mL (≈ 6.79 µM). For COc1ccc(OC)c(CNc2ncnc3onc(C)c23)c1, the solubility kinetic was over 44 µg/mL. In the case of Oc1ccc2[nH]cc(CCCCN3CC=C(c4ccccc4)CC3)c2c1, the solubility kinetic was 42.4 µg/mL (≈ 122 µM). CN(C)c1ccc(-c2csc(N3CCC(C(N)=O)CC3)n2)cc1 gave a solubility kinetic of 3.78 µg/mL (≈ 11.4 µM). With Cn1ccc2c(C(=O)NCc3cccnc3)nc(-c3ccccc3C#N)cc21 the solubility kinetic was under 1 µg/mL. Work on CC1CCN(S(=O)(=O)c2ccc3c(ccc(=O)n3CC(=O)NCc3ccc(Cl)cc3)c2)CC1 yielded a solubility kinetic of under 1 µg/mL. In the case of Cc1ccc(S(=O)(=O)Nc2ncccc2C(=O)Nc2nc(-c3ccccc3)cs2)cc1, the solubility kinetic was under 1 µg/mL. COc1cc2c(cc1OCCCN1CCCC1)N=C(N)C21CCC1 showed a solubility kinetic of over 49 µg/mL. In the case of Cc1cn2c(-c3cn[nH]c3)cnc2c(Nc2ccc(C(=O)N3CCNCC3)cc2F)n1, the solubility kinetic was 13.4 µg/mL (≈ 31.8 µM). Compound Cc1ccc(S(=O)(=O)Nc2ccccc2C(=O)Nc2nc(-c3ccccc3)cs2)cc1 has a solubility kinetic of under 1 µg/mL. For COc1ccnc(NC(=S)N2CCN(c3cc(C(F)(F)F)cc(C(F)(F)F)c3)CC2)c1, the solubility kinetic was 2.88 µg/mL (≈ 6.21 µM). In the case of CCOc1ccc(CCNC(=O)c2cc3sccc3n2CCN(C)C)cc1OCC, the solubility kinetic was over 63 µg/mL. In the case of O=C(Nc1ccc(Cl)cc1Cl)c1cnc2ccccc2n1, the solubility kinetic was under 1 µg/mL. Compound CC(NCc1ccc2c(c1)nc(NC(=O)c1ccc(-c3cn[nH]c3)s1)n2CC(C)(C)O)C(C)(C)C (stereo unspecified) has a solubility kinetic of over 73 µg/mL. Work on COc1cccc(CNc2ccc(S(=O)(=O)Nc3nc4ccccc4o3)cc2)c1O yielded a solubility kinetic of over 63 µg/mL. O=S(=O)(Nc1cnc2ccccc2c1)c1ccc(NCc2cccc(Cl)c2O)cc1 gave a solubility kinetic of 1.84 µg/mL (≈ 4.18 µM). Compound N#C/C(=C\c1ccc(-c2ccc(C(=O)O)cc2)o1)c1nc2ccccc2[nH]1 has a solubility kinetic of under 1 µg/mL. Oc1ccc(CNc2cccc(F)c2F)c2cccnc12 showed a solubility kinetic of under 1 µg/mL. Compound Cc1ccccc1C(=O)n1ccc2cc(-c3nc(NC(=O)Cc4ccc5c(c4)OCO5)sc3C)ccc21 has a solubility kinetic of under 1 µg/mL. CN1C(=O)c2ccccc2[S@](=O)c2ccc(C(=O)NCc3cccnc3)cc21 gave a solubility kinetic of 1.35 µg/mL (≈ 3.45 µM). Clc1ccc2ncc(-c3cccc(NC4CCNCC4)n3)n2c1 showed a solubility kinetic of over 48 µg/mL. O=S(=O)(Nc1cnc2ccccc2c1)c1ccc(NCc2ccc(Br)cc2O)cc1 showed a solubility kinetic of under 1 µg/mL.
